Assay results reported in patent publication US11566057B2, “Long-acting co-agonists of the glucagon and GLP-1 receptors” (Merck Sharp & Dohme Corp., priority 2017, dated 2023).
Read-outs that look alike come from different tables or passages of the source. Numbered stars: 1 amine (or outer) side, 2 acyl side, 3 side chain; on linkers, the order of the positions; unused ones are H or OH. Square brackets hold non-standard residues; d marks the D form. Side chains are listed from the residue outwards. Peptide text beside a SMILES is read from it. * marks the point of attachment. C20 diacid = O=C(O)CCCCCCCCCCCCCCCCCCC(=O)*; Phe(4-CH2NH2) = NCc1ccc(C[C@H](N)C(=O)O)cc1; C18 diacid = O=C(O)CCCCCCCCCCCCCCCCC(=O)*; αMeW = C[C@](N)(Cc1c[nH]c2ccccc12)C(=O)O; C16 diacid = O=C(O)CCCCCCCCCCCCCCC(=O)*; γGlu = O=C(O)[C@H](CCC(=O)[*:2])N[*:1]; Met(O2) = CS(=O)(=O)CC[C@H](N)C(=O)O; αMeD = C[C@](N)(CC(=O)O)C(=O)O; AEEA = NCCOCCOCC(=O)O; Aib = CC(C)(N)C(=O)O

Tests used:
human GLP1R = target: T1, human GLP1R (Homo sapiens, UniProt P43220); assay: cAMP activity assay at the GLP-1 receptor (GLP1R); assay type: cell-based
T1 construct: expressed in transfected cells; growth medium holds Blasticidin and Hygromycin
T1 sequence (P43220 24-463): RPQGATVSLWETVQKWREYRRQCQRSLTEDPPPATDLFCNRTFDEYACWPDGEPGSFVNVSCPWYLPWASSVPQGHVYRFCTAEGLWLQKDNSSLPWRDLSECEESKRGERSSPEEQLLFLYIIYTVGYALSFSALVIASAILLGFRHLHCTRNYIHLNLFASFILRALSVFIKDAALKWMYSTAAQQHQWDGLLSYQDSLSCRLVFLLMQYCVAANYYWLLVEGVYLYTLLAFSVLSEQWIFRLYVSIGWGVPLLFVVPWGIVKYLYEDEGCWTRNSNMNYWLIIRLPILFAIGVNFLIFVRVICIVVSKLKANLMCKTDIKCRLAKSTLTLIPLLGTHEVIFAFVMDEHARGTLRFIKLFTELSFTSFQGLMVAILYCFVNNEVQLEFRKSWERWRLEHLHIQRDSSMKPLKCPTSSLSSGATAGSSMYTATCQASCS
Method in brief: (§1)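 Peptides serially diluted from DMSO (10 points) and added to frozen-stock cells bearing human GLP1R (10,000 cells/well) or GCGR (30,000 cells/well), 1 h at RT, dark. EC50 by four-parameter logistic fit of HitHunter cAMPXS luminescence, read following overnight RT incubation.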

human GCGR = target: T2, human GCGR (Homo sapiens, UniProt P47871); assay: cAMP activity assay at the Glucagon receptor (GCGR); assay type: cell-based; settings: for hGCGR/hGLP1R (hTone): ratio of GCGR EC50 to GLP1R EC50
T2 construct: expressed in transfected cells; growth medium holds Blasticidin and Hygromycin
T2 sequence (P47871 26-477): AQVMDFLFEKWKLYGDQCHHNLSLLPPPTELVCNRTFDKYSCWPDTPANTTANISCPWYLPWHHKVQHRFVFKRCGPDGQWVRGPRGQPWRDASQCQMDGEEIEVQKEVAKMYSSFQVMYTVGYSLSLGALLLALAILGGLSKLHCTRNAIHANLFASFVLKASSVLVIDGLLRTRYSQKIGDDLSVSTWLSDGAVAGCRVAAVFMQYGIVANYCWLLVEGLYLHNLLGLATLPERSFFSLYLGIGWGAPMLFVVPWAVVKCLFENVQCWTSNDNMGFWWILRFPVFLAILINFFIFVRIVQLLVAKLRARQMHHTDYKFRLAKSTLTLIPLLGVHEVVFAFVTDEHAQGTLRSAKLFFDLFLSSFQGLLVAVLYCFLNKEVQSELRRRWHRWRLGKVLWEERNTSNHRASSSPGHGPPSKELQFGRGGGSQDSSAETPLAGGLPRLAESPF
Method in brief: as §1

[1] = summary statement: EC50 at each of the glucagon and GLP-1 receptors, read-out: EC50 at the GLP-1 receptor
[2] = cells expressing human GCGR, cAMP production, buffer with or without 20% human serum (not stated which), read-out: GCGR EC50 human
[3] = summary statement: EC50 at each of the glucagon and GLP-1 receptors, read-out: EC50 at the glucagon receptor
[4] = cells expressing human GLP1R, cAMP production, buffer with or without 20% human serum (not stated which), read-out: GLP1R EC50 human

Which EC50 (human GLP1R; [1]) does the source give for CC(C)C[C@H](NC(=O)[C@H](Cc1ccc(O)cc1)NC(=O)[C@H](CCCCN)NC(=O)[C@H](CO)NC(=O)[C@H](Cc1ccc(O)cc1)NC(=O)[C@H](CC(=O)O)NC(=O)[C@H](CO)NC(=O)[C@@H](NC(=O)[C@H](Cc1ccccc1)NC(=O)[C@@H](NC(=O)CNC(=O)[C@H](CCC(N)=O)NC(=O)C(C)(C)NC(=O)[C@@H](N)Cc1c[nH]cn1)[C@@H](C)O)[C@@H](C)O)C(=O)N[C@@H](CC(=O)O)C(=O)N[C@@H](C)C(=O)N[C@@H](CCCNC(=N)N)C(=O)N[C@@H](C)C(=O)N[C@@H](C)C(=O)N[C@@H](CCCCNC(=O)COCCOCCNC(=O)CC[C@H](NC(=O)CCCCCCCCCCCCCCC(=O)O)C(=O)O)C(=O)N[C@@H](CC(=O)O)C(=O)N[C@@H](Cc1ccccc1)C(=O)N[C@H](C(=O)N[C@@H](CCC(N)=O)C(=O)N[C@@H](Cc1c[nH]c2ccccc12)C(=O)N[C@@H](CC(C)C)C(=O)N[C@@H](CCS(C)(=O)=O)C(=O)N[C@@](C)(CC(=O)O)C(=O)N[C@H](C(N)=O)[C@@H](C)O)C(C)C [TP627] (H-H[Aib]QGTFTSDYSKYLDARAAK([AEEA-γGlu-C16 diacid])DFVQWL[Met(O2)][αMeD]T-NH2; N-terminus assumed) here?
The EC50 was < 5 nM.

What about the EC50 (human GCGR; [2]) of the same compound?
The EC50 was 0.14 nM.

What about the “hGCGR/hGLP1R (hTone)” value (human GCGR) of the same compound?
The value was 0.6.

And the EC50 (human GCGR; [3])?
The EC50 was < 5 nM.

Which results are given for CC(C)C[C@H](NC(=O)[C@H](Cc1ccc(O)cc1)NC(=O)[C@H](CCCCN)NC(=O)[C@H](CO)NC(=O)[C@H](Cc1ccc(O)cc1)NC(=O)[C@H](CC(=O)O)NC(=O)[C@H](CO)NC(=O)[C@@H](NC(=O)[C@H](Cc1ccccc1)NC(=O)[C@@H](NC(=O)CNC(=O)[C@H](CCC(N)=O)NC(=O)C(C)(C)NC(=O)[C@@H](N)Cc1c[nH]cn1)[C@@H](C)O)[C@@H](C)O)C(=O)N[C@@H](CC(=O)O)C(=O)N[C@@H](C)C(=O)N[C@@H](CCCNC(=N)N)C(=O)N[C@@H](C)C(=O)N[C@@H](C)C(=O)N[C@@H](CCCCNC(=O)COCCOCCNC(=O)CC[C@H](NC(=O)CCCCCCCCCCCCCCCCCCC(=O)O)C(=O)O)C(=O)N[C@@H](CC(=O)O)C(=O)N[C@@H](Cc1ccccc1)C(=O)N[C@H](C(=O)N[C@@H](CCC(N)=O)C(=O)N[C@@H](Cc1c[nH]c2ccccc12)C(=O)N[C@@H](CC(C)C)C(=O)N[C@@H](CCS(C)(=O)=O)C(=O)N[C@@](C)(CC(=O)O)C(=O)N[C@H](C(N)=O)[C@@H](C)O)C(C)C [TP629] (H-H[Aib]QGTFTSDYSKYLDARAAK([AEEA-γGlu-C20 diacid])DFVQWL[Met(O2)][αMeD]T-NH2; N-terminus assumed)?
EC50 (human GLP1R; [1]): < 5 nM; hGCGR/hGLP1R (hTone) (human GCGR): 1.4; EC50 (human GCGR; [3]): < 5 nM

Which EC50 (human GLP1R; [1]) does the source give for CC(C)C[C@H](NC(=O)[C@H](Cc1ccc(O)cc1)NC(=O)[C@H](CCCCN)NC(=O)[C@H](CO)NC(=O)[C@H](Cc1ccc(O)cc1)NC(=O)[C@H](CC(=O)O)NC(=O)[C@H](CO)NC(=O)[C@@H](NC(=O)[C@H](Cc1ccccc1)NC(=O)[C@@H](NC(=O)CNC(=O)[C@H](CCC(N)=O)NC(=O)C(C)(C)NC(=O)[C@@H](N)Cc1c[nH]cn1)[C@@H](C)O)[C@@H](C)O)C(=O)N[C@@H](CC(=O)O)C(=O)N[C@@H](C)C(=O)N[C@@H](CCCNC(=N)N)C(=O)N[C@@H](C)C(=O)N[C@@H](C)C(=O)N[C@@H](CCCCNC(=O)COCCOCCNC(=O)COCCOCCNC(=O)CC[C@H](NC(=O)CCCCCCCCCCCCCCCCC(=O)O)C(=O)O)C(=O)N[C@@H](CC(=O)O)C(=O)N[C@@H](Cc1ccccc1)C(=O)N[C@H](C(=O)N[C@@H](CCC(N)=O)C(=O)N[C@@](C)(Cc1c[nH]c2ccccc12)C(=O)N[C@@H](CC(C)C)C(=O)N[C@@H](CCS(C)(=O)=O)C(=O)N[C@@H](CC(=O)O)C(=O)N[C@H](C(N)=O)[C@@H](C)O)C(C)C [TP631] (H-H[Aib]QGTFTSDYSKYLDARAAK([AEEA-AEEA-γGlu-C18 diacid])DFVQ[αMeW]L[Met(O2)]DT-NH2; N-terminus assumed) here?
Its EC50 is < 5 nM.

And the “hGCGR/hGLP1R (hTone)” value (human GCGR)?
The value was 1.3.

What about the EC50 (human GCGR; [3]) of the same compound?
Its EC50 is < 5 nM.

Which results are given for CC(C)C[C@H](NC(=O)[C@H](Cc1ccc(O)cc1)NC(=O)[C@H](CCCCN)NC(=O)[C@H](CO)NC(=O)[C@H](Cc1ccc(O)cc1)NC(=O)[C@H](CC(=O)O)NC(=O)[C@H](CO)NC(=O)[C@@H](NC(=O)[C@H](Cc1ccccc1)NC(=O)[C@@H](NC(=O)CNC(=O)[C@H](CCC(N)=O)NC(=O)C(C)(C)NC(=O)[C@@H](N)Cc1c[nH]cn1)[C@@H](C)O)[C@@H](C)O)C(=O)N[C@@H](CC(=O)O)C(=O)N[C@@H](C)C(=O)N[C@@H](CCCNC(=N)N)C(=O)N[C@@H](C)C(=O)N[C@@H](C)C(=O)N[C@@H](CCC(N)=O)C(=O)N[C@@H](Cc1ccc(CNC(=O)COCCOCCNC(=O)CC[C@H](NC(=O)CCCCCCCCCCCCCCCCC(=O)O)C(=O)O)cc1)C(=O)N[C@@H](Cc1ccccc1)C(=O)N[C@H](C(=O)N[C@@H](CCC(N)=O)C(=O)N[C@@H](Cc1c[nH]c2ccccc12)C(=O)N[C@@H](CC(C)C)C(=O)N[C@@H](CC(C)C)C(=O)N[C@@H](CC(=O)O)C(=O)N[C@H](C(N)=O)[C@@H](C)O)C(C)C [TP633] (H-H[Aib]QGTFTSDYSKYLDARAAQ[Phe(4-CH2NH2)]([AEEA-γGlu-C18 diacid])FVQWLLDT-NH2; N-terminus assumed)?
EC50 (human GLP1R; [4]): 0.19 nM; EC50 (human GLP1R; [1]): < 5 nM; hGCGR/hGLP1R (hTone) (human GCGR): 0.7; EC50 (human GCGR; [3]): < 5 nM

With CC(C)C[C@H](NC(=O)[C@H](Cc1ccc(O)cc1)NC(=O)[C@H](CCCCN)NC(=O)[C@H](CO)NC(=O)[C@H](Cc1ccc(O)cc1)NC(=O)[C@H](CC(=O)O)NC(=O)[C@H](CO)NC(=O)[C@@H](NC(=O)[C@H](Cc1ccccc1)NC(=O)[C@@H](NC(=O)CNC(=O)[C@H](CCC(N)=O)NC(=O)C(C)(C)NC(=O)[C@@H](N)Cc1c[nH]cn1)[C@@H](C)O)[C@@H](C)O)C(=O)N[C@@H](CC(=O)O)C(=O)N[C@@H](C)C(=O)N[C@@H](CCCNC(=N)N)C(=O)N[C@@H](C)C(=O)N[C@@H](C)C(=O)N[C@@H](CCC(N)=O)C(=O)N[C@@H](Cc1ccc(CNC(=O)COCCOCCNC(=O)COCCOCCNC(=O)CC[C@H](NC(=O)CCCCCCCCCCCCCCCCC(=O)O)C(=O)O)cc1)C(=O)N[C@@H](Cc1ccccc1)C(=O)N[C@H](C(=O)N[C@@H](CCC(N)=O)C(=O)N[C@@H](Cc1c[nH]c2ccccc12)C(=O)N[C@@H](CC(C)C)C(=O)N[C@@H](CCS(C)(=O)=O)C(=O)N[C@@](C)(CC(=O)O)C(=O)N[C@H](C(N)=O)[C@@H](C)O)C(C)C [TP634] (H-H[Aib]QGTFTSDYSKYLDARAAQ[Phe(4-CH2NH2)]([AEEA-AEEA-γGlu-C18 diacid])FVQWL[Met(O2)][αMeD]T-NH2) as the compound, how does the EC50 (human GLP1R; [1]) read?
The EC50 was < 5 nM.

And the “hGCGR/hGLP1R (hTone)” value (human GCGR)?
Its value is 1.6.

And the EC50 (human GCGR; [3])?
Its EC50 is < 5 nM.

Which results are given for CC(C)C[C@H](NC(=O)[C@H](Cc1ccc(O)cc1)NC(=O)[C@H](CCCCN)NC(=O)[C@H](CO)NC(=O)[C@H](Cc1ccc(O)cc1)NC(=O)[C@H](CC(=O)O)NC(=O)[C@H](CO)NC(=O)[C@@H](NC(=O)[C@H](Cc1ccccc1)NC(=O)[C@@H](NC(=O)CNC(=O)[C@H](CCC(N)=O)NC(=O)C(C)(C)NC(=O)[C@@H](N)Cc1c[nH]cn1)[C@@H](C)O)[C@@H](C)O)C(=O)N[C@@H](CC(=O)O)C(=O)N[C@@H](C)C(=O)N[C@@H](CCCNC(=N)N)C(=O)N[C@@H](C)C(=O)N[C@@H](C)C(=O)N[C@@H](Cc1ccc(CNC(=O)COCCOCCNC(=O)CC[C@H](NC(=O)CCCCCCCCCCCCCCCCC(=O)O)C(=O)O)cc1)C(=O)N[C@@H](CC(=O)O)C(=O)N[C@@H](Cc1ccccc1)C(=O)N[C@H](C(=O)N[C@@H](CCC(N)=O)C(=O)N[C@@H](Cc1c[nH]c2ccccc12)C(=O)N[C@@H](CC(C)C)C(=O)N[C@@H](CC(C)C)C(=O)N[C@@H](CC(=O)O)C(=O)N[C@H](C(N)=O)[C@@H](C)O)C(C)C [TP635] (H-H[Aib]QGTFTSDYSKYLDARAA[Phe(4-CH2NH2)]([AEEA-γGlu-C18 diacid])DFVQWLLDT-NH2)?
EC50 (human GLP1R; [1]): < 5 nM; EC50 (human GCGR; [2]): 0.46 nM; hGCGR/hGLP1R (hTone) (human GCGR): 0.2; EC50 (human GCGR; [3]): < 5 nM

CC(C)C[C@H](NC(=O)[C@H](Cc1ccc(O)cc1)NC(=O)[C@H](CCCCN)NC(=O)[C@H](CO)NC(=O)[C@H](Cc1ccc(O)cc1)NC(=O)[C@H](CC(=O)O)NC(=O)[C@H](CO)NC(=O)[C@@H](NC(=O)[C@H](Cc1ccccc1)NC(=O)[C@@H](NC(=O)CNC(=O)[C@H](CCC(N)=O)NC(=O)C(C)(C)NC(=O)[C@@H](N)Cc1c[nH]cn1)[C@@H](C)O)[C@@H](C)O)C(=O)N[C@@H](CC(=O)O)C(=O)N[C@@H](C)C(=O)N[C@@H](CCCNC(=N)N)C(=O)N[C@@H](C)C(=O)N[C@@H](C)C(=O)N[C@@H](Cc1ccc(CNC(=O)COCCOCCNC(=O)COCCOCCNC(=O)CC[C@H](NC(=O)CCCCCCCCCCCCCCCCC(=O)O)C(=O)O)cc1)C(=O)N[C@@H](CC(=O)O)C(=O)N[C@@H](Cc1ccccc1)C(=O)N[C@H](C(=O)N[C@@H](CCC(N)=O)C(=O)N[C@@H](Cc1c[nH]c2ccccc12)C(=O)N[C@@H](CC(C)C)C(=O)N[C@@H](CCS(C)(=O)=O)C(=O)N[C@@](C)(CC(=O)O)C(=O)N[C@H](C(N)=O)[C@@H](C)O)C(C)C [TP636] (H-H[Aib]QGTFTSDYSKYLDARAA[Phe(4-CH2NH2)]([AEEA-AEEA-γGlu-C18 diacid])DFVQWL[Met(O2)][αMeD]T-NH2; N-terminus assumed) was tested. Which EC50 (human GLP1R; [4]) did it give?
Its EC50 is 0.52 nM.

And the EC50 (human GLP1R; [1])?
The EC50 was < 5 nM.

What about the “hGCGR/hGLP1R (hTone)” value (human GCGR) of the same compound?
Its value is 0.2.

And the EC50 (human GCGR; [3])?
Its EC50 is < 5 nM.
